Measurements as given in PubChem BioAssay AID1919007 (Molecular Pharmacology Branch, DTP, NCI, 2023).

System: A498 complex spheroids with HUVEC/MSC, growth
Experiment: Anticancer human tumor A498 cell line growth inhibition [AhR];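 also: seven day exposure starting three days after spheroid seeding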;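 as to viability, T/C: luminescence signal used as a surrogate for viable cells; luminescence viability scaled so 100% equals DMSO vehicle wells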
Conditions: for IC50: curve of first compound; for viability, T/C: stronger effect = lower value
Text: Multicellular complex tumor spheroid response to aryl hydrocarbon receptor antagonists in combination with a variety of drugs and investigational agents in selected tumor cell lines
The current study was undertaken to assess response to aryl hydrocarbon receptor antagonists in combination with standard-of-care drugs and investigational agents in solid tumor complex spheroid models. Complex spheroids include a stromal component modeled by human endothelial cells (HUVEC) and fibroblasts modeled by human mesenchymal stem cells (MSCs). The concentration ranges selected for each drug and investigational agent were based upon clinically achievable concentrations if the clinical Cmax of the agent was known.
Compounds. The drugs and investigational agents: BAY 2416964 (NSC825713), GNF351 (NSC835774), CH-223191 (NSC835775), CPI-455 (NSC825282), aza-TdCyd (NSC777586), decitabine (NSC127716), belinostat (NSC758774), entinostat (NSC756642), pevonedistat (NSC761192), tazemetostat (NSC777109), talazoparib (NSC765396), olaparib (NSC753686), selinexor (NSC780203), nedisertib (M3814, NSC802822), bortezomib (NSC756655), venetoclax (NSC766270), doxorubicin (NSC123127), elimusertib (BAY189344, NSC800525), ceralasertib (AZD6738, NSC777638), TAK-243 (NSC785004), alisertib (NSC759677), etoposide (NSC141540), topotecan (NSC609699), eribulin (NSC707389), gemcitabine (NSC613327), carboplatin (NSC241240), cisplatin (NSC119875), and SN-38 (NSC673596) were obtained from the National Cancer Institute (NCI) Developmental Therapeutics Program Chemical Repository (32). The FDA-approved anticancer drug set is available from the Developmental Therapeutics Program at https://dtp.cancer.gov/organization/dscb/obtaining/available plates.htm. […] The stock solutions were prepared in dimethyl sulfoxide (DMSO, Sigma-Aldrich, St. Louis, MO, cat. D2650), except for the platinum compounds which were prepared in saline (Quality Biological, Gaithersburg, MD, cat. 114-055-101), at 800-fold the tested concentration and stored at -70 degrees C prior to their use. All drugs and investigational agents were tested over a range starting from a high concentration at or near the clinical Cmax and decreasing in half-log increments. If the clinical Cmax for an agent had not been determined, the highest concentration tested was 10 microM (Table 1).
Cell Culture. All cells were maintained in an incubator at 37 degrees C and 5% CO2 with 95% humidity. The PDC lines were cultured according to standard operating procedures established by the NCI PDMR (https://pdmr.cancer.gov). Briefly, all PDCs were thawed and cultured in Matrigel-coated flasks prepared with a working solution of 1X Ham's F-12 nutrient mix, without supplementation (Invitrogen, Waltham, MA, cat. 11765054), 100 U/mL penicillin-streptomycin (Invitrogen, cat. 15140122), and 2.5% Matrigel (Corning Inc., Corning, NY, cat. 354248) for the first three passages. All PDCs were cultured in complete DMEM/F-12 media containing advanced DMEM/F-12 (Invitrogen, cat. 12634028), 4.9% defined fetal bovine serum, heat inactivated (HyClone Laboratories Inc., Logan, UT, cat. SH30070.03HI), 389 ng/mL hydrocortisone (Sigma-Aldrich, cat. H4001), 9.7 ng/mL human EGF recombinant protein (Invitrogen, cat. PHG0313), 23.4 microg/mL adenine (Sigma-Aldrich, cat. A2786), 97.3 U/mL penicillin-streptomycin (Invitrogen, cat. 15140122), 1.9 mM L-glutamine (Invitrogen, cat. 25030081), and 9.7 microM Y-27632 dihydrochloride (Tocris Bioscience, Bristol, United Kingdom, cat. 1254). The PDCs were cultured in complete DMEM/F12 media without 10 microM Y-27632 dihydrochloride for at least two passages prior to the screen. The established cell lines NCI-H1341 and […] were cultured in DMEM/F-12, HEPES (Invitrogen, cat. 11330032), 5% defined fetal bovine serum (HyClone Laboratories Inc., cat. SH30070.03), ITS premix universal culture supplement [insulin (5 microg/mL), transferrin (5 microg/mL), and selenious acid (5 ng/mL)] […]

[1] = second compound 0.1 µM, first compound 0.00316 µM
[2] = second compound 0.1 µM, first compound 0.01 µM
[3] = second compound 0.1 µM, first compound 0.0316 µM
[4] = second compound 0.1 µM, first compound 0.1 µM
[5] = second compound 0.316 µM, first compound 0.00316 µM
[6] = second compound 0.316 µM, first compound 0.01 µM
[7] = second compound 0.316 µM, first compound 0.0316 µM
[8] = second compound 0.316 µM, first compound 0.1 µM
[9] = second compound 1 µM, first compound 0.00316 µM
[10] = second compound 1 µM, first compound 0.01 µM
[11] = second compound 1 µM, first compound 0.0316 µM
[12] = second compound 1 µM, first compound 0.1 µM
[13] = second compound 3.16 µM, first compound 0.00316 µM
[14] = second compound 3.16 µM, first compound 0.01 µM
[15] = second compound 3.16 µM, first compound 0.0316 µM
[16] = second compound 3.16 µM, first compound 0.1 µM
[17] = second compound 10 µM, first compound 0.00316 µM
[18] = second compound 10 µM, first compound 0.01 µM
[19] = second compound 10 µM, first compound 0.0316 µM
[20] = second compound 10 µM, first compound 0.1 µM
[21] = second compound 0.1 µM, first compound 0.316 µM
[22] = second compound 0.1 µM, first compound 1 µM
[23] = second compound 0.316 µM, first compound 0.316 µM
[24] = second compound 0.316 µM, first compound 1 µM
[25] = second compound 1 µM, first compound 0.316 µM
[26] = second compound 1 µM, first compound 1 µM
[27] = second compound 3.16 µM, first compound 0.316 µM
[28] = second compound 3.16 µM, first compound 1 µM
[29] = second compound 10 µM, first compound 0.316 µM
[30] = second compound 10 µM, first compound 1 µM

SMILES	IC50 (second compound 0.1 µM)	IC50 (second compound 0.316 µM)	IC50 (second compound 1 µM)	IC50 (second compound 3.16 µM)	IC50 (second compound 10 µM)	viability, T/C [1]	viability, T/C [2]	viability, T/C [3]	viability, T/C [4]	viability, T/C [5]	viability, T/C [6]	viability, T/C [7]	viability, T/C [8]	viability, T/C [9]	viability, T/C [11]	viability, T/C [12]	viability, T/C [15]	viability, T/C [16]	viability, T/C [19]	viability, T/C [20]	further results
CC[C@@]1(O)C(=O)OCc2c1cc1n(c2=O)Cc2cc3c(CN(C)C)c(O)ccc3nc2-1 + CC(CO)NC(=O)c1cc(-c2ccc(Cl)cc2)nn(-c2cnn(C)c2)c1=O	> 0.1 µM	> 0.1 µM	> 0.1 µM	> 0.1 µM	0.0757 µM	103%	94.6%	86.7%	68.2%	96.4%	82.4%	81.3%	64.8%	100%	76.9%	65.3%	71.2%	60.1%	57.1%	47.7%	viability, T/C (second compound 0.1 µM, first compound 0.000316 µM): 105%; viability, T/C (second compound 0.1 µM, first compound 0.001 µM): 98.4%; viability, T/C (second compound 0.316 µM, first compound 0.000316 µM): 93.2%; viability, T/C (second compound 0.316 µM, first compound 0.001 µM): 102%; viability, T/C (second compound 1 µM, first compound 0.000316 µM): 95.8%; viability, T/C (second compound 1 µM, first compound 0.001 µM): 106%; viability, T/C [10]: 92.2%; viability, T/C (second compound 3.16 µM, first compound 0.000316 µM): 92%; viability, T/C (second compound 3.16 µM, first compound 0.001 µM): 87%; viability, T/C [13]: 88.6%; viability, T/C [14]: 71.1%; viability, T/C (second compound 10 µM, first compound 0.000316 µM): 77%; viability, T/C (second compound 10 µM, first compound 0.001 µM): 74.2%; viability, T/C [17]: 76.6%; viability, T/C [18]: 63.1%
COc1cc(C2c3cc4c(cc3C(OC3OC5COC(C)OC5C(O)C3O)C3COC(=O)C23)OCO4)cc(OC)c1O (stereo not given) + CC(CO)NC(=O)c1cc(-c2ccc(Cl)cc2)nn(-c2cnn(C)c2)c1=O	2.97 µM	2.08 µM	1.56 µM	1.08 µM	0.4 µM			74.1%	81.2%			74.2%	73.1%		66.7%	77%	64.4%	66.7%	49.3%	57.7%	viability, T/C [21]: 69.4%; viability, T/C [22]: 57.7%; viability, T/C (second compound 0.1 µM, first compound 3.16 µM): 52.5%; viability, T/C (second compound 0.1 µM, first compound 10 µM): 42.2%; viability, T/C [23]: 68%; viability, T/C [24]: 52.9%; viability, T/C (second compound 0.316 µM, first compound 3.16 µM): 49.8%; viability, T/C (second compound 0.316 µM, first compound 10 µM): 40.1%; viability, T/C [25]: 71.3%; viability, T/C [26]: 53.3%; viability, T/C (second compound 1 µM, first compound 3.16 µM): 47.3%; viability, T/C (second compound 1 µM, first compound 10 µM): 40.3%; viability, T/C [27]: 64.5%; viability, T/C [28]: 50.2%; viability, T/C (second compound 3.16 µM, first compound 3.16 µM): 41.9%; viability, T/C (second compound 3.16 µM, first compound 10 µM): 38.2%; viability, T/C [29]: 53.3%; viability, T/C [30]: 37.9%; viability, T/C (second compound 10 µM, first compound 3.16 µM): 37.3%; viability, T/C (second compound 10 µM, first compound 10 µM): 30.7%
Nc1ncn(C2CC(O)C(CO)O2)c(=O)n1 (stereo not given) + CC(CO)NC(=O)c1cc(-c2ccc(Cl)cc2)nn(-c2cnn(C)c2)c1=O	> 1 µM	> 1 µM	> 1 µM	> 1 µM	> 1 µM	96.1%	91.9%	88%	76.1%	83.7%	97.2%	86.2%	78.2%	88.3%	88.4%	75.1%	84%	70.7%	67%	55.8%	viability, T/C [21]: 77.8%; viability, T/C [22]: 66.7%; viability, T/C [23]: 76%; viability, T/C [24]: 66.9%; viability, T/C [10]: 87%; viability, T/C [25]: 75.4%; viability, T/C [26]: 67%; viability, T/C [13]: 79.7%; viability, T/C [14]: 85.7%; viability, T/C [27]: 67.1%; viability, T/C [28]: 59.2%; viability, T/C [17]: 62%; viability, T/C [18]: 67.1%; viability, T/C [29]: 52.8%; viability, T/C [30]: 53.6%
